Reference: ChEMBL document CHEMBL1201862, “PubChem BioAssay data set” (2004)
The source made the active and inactive calls.

Experiments:
[1] = molecular target: T1, Voltage-gated N-type calcium channel alpha-1B subunit/Amyloid beta A4 precursor protein-binding family A member 1 (Homo sapiens, UniProt Q00975+Q02410); type: protein assay
[2] = molecular target: T1, Voltage-gated N-type calcium channel alpha-1B subunit/Amyloid beta A4 precursor protein-binding family A member 1; type: protein assay; remark: listed apart in the source
Beta-lactamase [3] = molecular target: Beta-lactamase (Pseudomonas aeruginosa, UniProt Q79MP6);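 further: biochemical dose-response test of metallo-beta-lactamase enzyme inhibition, read out by epi-absorbance; purified recombinant IMP-1 metallo-beta-lactamase with nitrocefin as substrate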
Beta-lactamase [4] = molecular target: Beta-lactamase (Salmonella choleraesuis (strain SC-B67), UniProt Q5J463)
ORF 73 = ORF 73 (Human herpesvirus 8, UniProt O40947); assay: KSHV LANA DNA-binding disruption – biochemical, fluorescence polarization, cherry-picked samples, dose response (AID 504725); design: species or system Human gammaherpesvirus 8;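 further: fluorescence polarization of a labeled DNA duplex reporting LANA DNA binding; potency is for inhibitors that block LANA binding to the DNA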
Insulin-degrading enzyme [5] = molecular target: T2, Insulin-degrading enzyme (Homo sapiens, UniProt P14735); assay: recombinant IDE activation, cell-free – biochemical, fluorescence polarization, counter-screen for IDE activator project, dose response (AID 588681)
T2 sequence (P14735 whole entry): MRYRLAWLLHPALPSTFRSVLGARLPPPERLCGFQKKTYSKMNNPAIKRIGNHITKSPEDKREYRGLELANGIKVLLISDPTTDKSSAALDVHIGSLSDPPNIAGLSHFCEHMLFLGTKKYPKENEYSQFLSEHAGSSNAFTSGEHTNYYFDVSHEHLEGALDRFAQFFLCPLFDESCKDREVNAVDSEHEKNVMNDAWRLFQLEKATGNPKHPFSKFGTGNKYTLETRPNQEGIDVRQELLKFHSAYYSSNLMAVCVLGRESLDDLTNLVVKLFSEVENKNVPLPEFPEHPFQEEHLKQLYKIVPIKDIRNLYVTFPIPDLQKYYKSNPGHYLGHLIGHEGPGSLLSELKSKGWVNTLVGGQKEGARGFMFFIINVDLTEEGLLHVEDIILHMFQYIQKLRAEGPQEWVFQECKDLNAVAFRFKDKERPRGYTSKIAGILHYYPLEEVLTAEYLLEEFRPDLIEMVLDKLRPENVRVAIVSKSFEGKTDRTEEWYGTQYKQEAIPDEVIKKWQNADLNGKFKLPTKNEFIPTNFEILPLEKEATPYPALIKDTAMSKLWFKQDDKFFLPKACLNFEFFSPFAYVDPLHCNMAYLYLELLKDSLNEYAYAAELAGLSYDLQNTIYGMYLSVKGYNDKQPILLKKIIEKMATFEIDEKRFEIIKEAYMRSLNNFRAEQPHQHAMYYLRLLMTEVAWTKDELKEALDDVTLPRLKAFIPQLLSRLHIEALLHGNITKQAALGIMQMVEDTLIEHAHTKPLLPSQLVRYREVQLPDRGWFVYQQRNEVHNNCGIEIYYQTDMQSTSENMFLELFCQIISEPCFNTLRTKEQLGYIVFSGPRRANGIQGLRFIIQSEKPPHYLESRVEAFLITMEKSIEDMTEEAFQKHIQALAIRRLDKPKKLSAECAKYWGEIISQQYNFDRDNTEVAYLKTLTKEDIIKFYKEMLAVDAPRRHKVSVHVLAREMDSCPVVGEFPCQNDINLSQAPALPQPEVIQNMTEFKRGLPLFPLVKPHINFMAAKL

Keap1/Nrf2 = Keap1/Nrf2 (Homo sapiens, UniProt Q14145); assay: disruptors of Keap1 binding to Nrf2 peptide – biochemical, fluorescence polarization, cherry-picked samples, dose response (AID 588683)
Chain of Keap1/Nrf2 (Q16236 whole entry): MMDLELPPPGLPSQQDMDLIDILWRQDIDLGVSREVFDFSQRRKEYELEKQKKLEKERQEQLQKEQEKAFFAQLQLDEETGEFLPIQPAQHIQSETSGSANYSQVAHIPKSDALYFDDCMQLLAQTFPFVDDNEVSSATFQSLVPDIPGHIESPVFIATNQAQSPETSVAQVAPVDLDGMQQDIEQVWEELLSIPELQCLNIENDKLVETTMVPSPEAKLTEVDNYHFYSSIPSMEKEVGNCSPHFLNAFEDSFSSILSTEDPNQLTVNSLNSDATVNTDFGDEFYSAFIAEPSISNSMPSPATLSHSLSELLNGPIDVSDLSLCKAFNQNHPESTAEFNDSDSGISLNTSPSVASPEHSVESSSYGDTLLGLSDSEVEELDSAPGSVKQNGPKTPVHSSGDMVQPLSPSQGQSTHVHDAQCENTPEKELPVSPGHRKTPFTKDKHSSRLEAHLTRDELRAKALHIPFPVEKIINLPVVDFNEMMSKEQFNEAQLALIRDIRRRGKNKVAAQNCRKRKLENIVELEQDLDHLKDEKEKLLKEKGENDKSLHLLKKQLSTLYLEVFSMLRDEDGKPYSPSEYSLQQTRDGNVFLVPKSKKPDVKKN
Chain of Keap1/Nrf2 (Q14145 whole entry): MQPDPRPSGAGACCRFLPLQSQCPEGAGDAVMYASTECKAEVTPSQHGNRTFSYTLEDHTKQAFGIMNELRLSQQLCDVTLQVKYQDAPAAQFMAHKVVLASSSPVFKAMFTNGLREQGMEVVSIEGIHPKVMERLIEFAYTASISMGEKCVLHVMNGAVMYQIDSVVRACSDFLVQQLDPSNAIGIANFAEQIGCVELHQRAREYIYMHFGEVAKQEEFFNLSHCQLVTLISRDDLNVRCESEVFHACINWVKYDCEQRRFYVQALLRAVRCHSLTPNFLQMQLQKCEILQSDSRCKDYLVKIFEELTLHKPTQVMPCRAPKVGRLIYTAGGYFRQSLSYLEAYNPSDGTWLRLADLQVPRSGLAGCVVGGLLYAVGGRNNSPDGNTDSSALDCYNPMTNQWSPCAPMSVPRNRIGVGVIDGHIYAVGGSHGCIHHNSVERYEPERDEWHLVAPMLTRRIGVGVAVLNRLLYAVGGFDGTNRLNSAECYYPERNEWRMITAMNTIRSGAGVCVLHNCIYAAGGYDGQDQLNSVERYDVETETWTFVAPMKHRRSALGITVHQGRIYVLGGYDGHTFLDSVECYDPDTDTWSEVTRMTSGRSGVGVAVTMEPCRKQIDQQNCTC

Insulin-degrading enzyme [6] = molecular target: T2, Insulin-degrading enzyme; assay: cellular IDE activation of Abeta substrate cleavage – fluorescence polarization, HEK cells, dose response (AID 588439); type: functional, cell-based
HEK293 [7] = assay: membrane integrity loss in HEK cells – cell-based, fluorescence, cytotoxicity control for IDE activator project, dose response (AID 588440); type: functional; details: Homo sapiens;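 further: cytotoxicity by LDH release measuring loss of membrane integrity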
HEK293 [8] = assay: optical interference in Abeta FP readout, dose response, artefact control for IDE activator project, biochemical, fluorescence polarization (AID 588442); type: functional, cell-based; details: Homo sapiens
[9] = molecular target: Long-chain-fatty-acid--AMP ligase FadD28 (Mycobacterium tuberculosis, UniProt P9WQ59); assay: Fluorescence polarization aasay to screen for inhibitors that compete for the binding of FadD28 to a bisubstrate Measured in Biochemical System Using Plate Reader - 2147-01_Inhibitor_Dose_CherryPick_Activity.; type: functional, Mycobacterium tuberculosis H37Rv
Chain of Long-chain-fatty-acid--AMP ligase FadD28 (P9WQ59 whole entry): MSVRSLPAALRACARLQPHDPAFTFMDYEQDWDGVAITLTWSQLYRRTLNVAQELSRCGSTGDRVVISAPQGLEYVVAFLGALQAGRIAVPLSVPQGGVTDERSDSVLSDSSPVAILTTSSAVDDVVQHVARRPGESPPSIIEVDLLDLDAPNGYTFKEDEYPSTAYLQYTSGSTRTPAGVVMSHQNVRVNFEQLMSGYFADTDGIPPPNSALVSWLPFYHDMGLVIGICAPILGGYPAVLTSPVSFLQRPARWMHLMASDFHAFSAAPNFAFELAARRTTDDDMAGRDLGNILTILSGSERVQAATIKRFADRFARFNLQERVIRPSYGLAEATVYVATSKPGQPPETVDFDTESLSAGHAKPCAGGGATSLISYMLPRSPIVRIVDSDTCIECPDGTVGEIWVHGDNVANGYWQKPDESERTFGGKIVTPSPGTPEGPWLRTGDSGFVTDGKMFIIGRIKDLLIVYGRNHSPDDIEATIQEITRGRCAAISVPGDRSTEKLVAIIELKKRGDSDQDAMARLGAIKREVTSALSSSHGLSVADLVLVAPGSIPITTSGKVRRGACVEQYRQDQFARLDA

T1 sequence (Q00975 whole entry): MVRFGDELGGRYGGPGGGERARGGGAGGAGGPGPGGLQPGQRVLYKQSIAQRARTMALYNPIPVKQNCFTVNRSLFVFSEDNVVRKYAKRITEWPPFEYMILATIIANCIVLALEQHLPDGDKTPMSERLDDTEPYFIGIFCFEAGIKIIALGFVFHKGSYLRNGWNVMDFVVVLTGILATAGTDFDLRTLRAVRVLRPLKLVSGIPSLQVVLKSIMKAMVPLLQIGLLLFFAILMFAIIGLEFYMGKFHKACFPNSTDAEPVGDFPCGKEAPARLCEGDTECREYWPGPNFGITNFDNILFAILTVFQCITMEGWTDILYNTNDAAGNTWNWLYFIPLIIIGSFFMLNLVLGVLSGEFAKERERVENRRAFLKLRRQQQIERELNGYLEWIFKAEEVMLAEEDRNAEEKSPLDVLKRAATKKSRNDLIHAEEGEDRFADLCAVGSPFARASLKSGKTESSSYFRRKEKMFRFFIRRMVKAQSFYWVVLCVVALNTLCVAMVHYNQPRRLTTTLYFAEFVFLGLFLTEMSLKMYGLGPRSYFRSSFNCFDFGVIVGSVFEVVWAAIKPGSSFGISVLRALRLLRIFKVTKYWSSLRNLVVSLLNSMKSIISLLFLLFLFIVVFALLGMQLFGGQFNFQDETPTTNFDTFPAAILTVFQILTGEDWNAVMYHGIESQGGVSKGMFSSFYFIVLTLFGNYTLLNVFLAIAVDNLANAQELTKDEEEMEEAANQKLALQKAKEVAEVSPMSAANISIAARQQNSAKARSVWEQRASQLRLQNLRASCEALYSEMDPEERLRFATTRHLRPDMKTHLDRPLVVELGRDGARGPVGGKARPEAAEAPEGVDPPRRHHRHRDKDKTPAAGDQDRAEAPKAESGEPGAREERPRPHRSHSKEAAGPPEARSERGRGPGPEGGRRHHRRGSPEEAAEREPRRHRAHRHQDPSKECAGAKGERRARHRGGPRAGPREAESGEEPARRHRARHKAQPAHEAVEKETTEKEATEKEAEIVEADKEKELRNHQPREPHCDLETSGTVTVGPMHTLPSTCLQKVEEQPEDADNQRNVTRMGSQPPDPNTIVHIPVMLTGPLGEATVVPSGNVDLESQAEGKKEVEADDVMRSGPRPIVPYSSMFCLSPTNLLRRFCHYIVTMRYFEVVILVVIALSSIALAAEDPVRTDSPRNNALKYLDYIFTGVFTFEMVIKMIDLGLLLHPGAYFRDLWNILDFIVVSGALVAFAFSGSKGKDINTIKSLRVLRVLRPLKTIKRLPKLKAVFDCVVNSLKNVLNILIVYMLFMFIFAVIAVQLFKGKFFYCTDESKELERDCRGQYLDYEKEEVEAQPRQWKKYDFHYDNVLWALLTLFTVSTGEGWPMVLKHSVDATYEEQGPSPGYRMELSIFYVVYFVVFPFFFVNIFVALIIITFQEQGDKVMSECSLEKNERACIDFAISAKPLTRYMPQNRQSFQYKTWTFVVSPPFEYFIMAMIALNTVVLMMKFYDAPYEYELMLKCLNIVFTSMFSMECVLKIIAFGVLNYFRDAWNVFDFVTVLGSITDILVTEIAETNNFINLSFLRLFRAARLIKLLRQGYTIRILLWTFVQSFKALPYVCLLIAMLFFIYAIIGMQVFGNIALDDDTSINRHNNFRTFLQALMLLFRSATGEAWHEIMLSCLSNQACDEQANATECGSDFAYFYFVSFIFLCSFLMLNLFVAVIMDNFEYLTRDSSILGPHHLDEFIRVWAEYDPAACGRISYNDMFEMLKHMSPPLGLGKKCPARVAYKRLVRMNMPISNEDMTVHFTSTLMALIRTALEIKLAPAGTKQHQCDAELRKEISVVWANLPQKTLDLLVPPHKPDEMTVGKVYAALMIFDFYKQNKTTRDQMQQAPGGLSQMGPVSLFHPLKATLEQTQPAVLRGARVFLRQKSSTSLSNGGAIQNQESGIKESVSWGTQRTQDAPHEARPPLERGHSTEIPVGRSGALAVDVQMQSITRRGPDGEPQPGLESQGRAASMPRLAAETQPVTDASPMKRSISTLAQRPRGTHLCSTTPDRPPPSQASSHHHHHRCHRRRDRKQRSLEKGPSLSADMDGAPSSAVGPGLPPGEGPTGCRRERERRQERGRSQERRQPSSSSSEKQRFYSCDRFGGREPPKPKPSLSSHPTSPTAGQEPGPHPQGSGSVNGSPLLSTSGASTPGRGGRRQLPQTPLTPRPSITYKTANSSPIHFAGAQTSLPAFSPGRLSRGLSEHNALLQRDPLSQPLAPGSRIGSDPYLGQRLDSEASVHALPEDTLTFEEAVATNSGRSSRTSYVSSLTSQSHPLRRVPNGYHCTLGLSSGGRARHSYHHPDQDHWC
T1 sequence (Q02410 whole entry): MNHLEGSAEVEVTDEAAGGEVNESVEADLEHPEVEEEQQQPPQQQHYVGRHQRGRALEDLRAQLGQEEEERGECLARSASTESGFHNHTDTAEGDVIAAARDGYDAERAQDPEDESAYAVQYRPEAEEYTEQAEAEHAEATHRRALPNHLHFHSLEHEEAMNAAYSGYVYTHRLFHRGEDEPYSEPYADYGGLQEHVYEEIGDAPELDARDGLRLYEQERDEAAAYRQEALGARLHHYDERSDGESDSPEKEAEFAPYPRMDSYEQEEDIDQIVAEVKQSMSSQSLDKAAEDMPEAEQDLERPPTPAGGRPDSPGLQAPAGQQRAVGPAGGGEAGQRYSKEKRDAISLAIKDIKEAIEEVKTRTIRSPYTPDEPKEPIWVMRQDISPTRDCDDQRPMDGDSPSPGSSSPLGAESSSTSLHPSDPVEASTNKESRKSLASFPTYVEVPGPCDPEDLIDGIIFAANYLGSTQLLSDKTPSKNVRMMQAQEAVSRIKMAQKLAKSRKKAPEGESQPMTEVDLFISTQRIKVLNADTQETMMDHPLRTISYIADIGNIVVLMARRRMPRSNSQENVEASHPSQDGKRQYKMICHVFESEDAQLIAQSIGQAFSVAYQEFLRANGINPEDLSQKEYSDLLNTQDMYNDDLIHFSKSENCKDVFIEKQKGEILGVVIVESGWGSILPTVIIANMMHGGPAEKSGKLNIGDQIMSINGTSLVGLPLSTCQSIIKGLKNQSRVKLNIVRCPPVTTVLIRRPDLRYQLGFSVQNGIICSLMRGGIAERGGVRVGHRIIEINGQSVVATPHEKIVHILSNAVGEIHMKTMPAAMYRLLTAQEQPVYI

Row | SMILES | IC50 [1] | IC50 [2] | IC50 (Beta-lactamase [3]) | IC50 (Beta-lactamase [4]) | AC50 (ORF 73) | EC50 (Insulin-degrading enzyme [5]) | AC50 (Keap1/Nrf2) | EC50 (Insulin-degrading enzyme [6]) | IC50 (HEK293 [7]) | EC50 (HEK293 [8]) | AC50 [9]
1 | O=C1c2cccc3c(O)ccc(c23)C(=O)N1Cc1ccco1 | 9.17 µM (active) | > 50 µM (inactive) | 14.1 µM (inactive) | 7.5 µM (active) | 966 nM (active) | > 54.7 µM (inactive) | 1.5 µM (active) | > 54.7 µM (inactive) | > 89.3 µM (inactive) | > 54.7 µM (inactive) | –
2 | Cc1cccc(NC(=O)Cn2c(=O)oc3ccccc32)n1 | – | – | – | – | – | – | – | – | – | – | 27.9 µM (active)
